Drawing on ChEMBL document CHEMBL5352434, “Design, synthesis, and biological evaluation of ocotillol derivatives fused with 2-aminothiazole via A-ring as modulators of P-glycoprotein-mediated multidrug resistance” (Eur J Med Chem, 2022), this text covers viability for 25 molecules.

What all share (type): functional
What all share (settings): read-out: Survival

Assay [1] in a line: Cytotoxicity against multi-drug resistance human KBV cells assessed as cell survival rate at 5 uM incubated for 72 hrs by MTT assay. For orientation: Tetrazolium assays rely on reduction of a dye to a coloured formazan, in cell work by metabolically active cells.
Assay [2] in a line: Cytotoxicity against multi-drug resistance human KBV cells assessed as cell survival rate at 5 uM in presence of 100 nM Paclitaxel incubated for 72 hrs by MTT assay.
The nature of assay [3]: Cytotoxicity against multi-drug resistance human KBV cells assessed as cell survival rate at 10 uM incubated for 72 hrs by MTT assay.
Assay [4] can be described thus: Cytotoxicity against multi-drug resistance human KBV cells assessed as cell survival rate at 10 uM in presence of 100 nM Paclitaxel incubated for 72 hrs by MTT assay.

Regarding `CC(C)[C@H](N)C(=O)Nc1nc2c(s1)C[C@]1(C)[C@H]3C[C@@H](O)[C@H]4[C@@H]([C@]5(C)CC[C@H](C(C)(C)O)O5)CC[C@@]4(C)[C@]3(C)CC[C@H]1C2(C)C`, the viability at 5 µM in assay [1] came to 95.2%; in assay [2], 91.6%. Besides, the viability at 10 µM worked out at 92.7% in assay [3] and 54.2% in assay [4].
In the case of `CC(C)(O)[C@H]1CC[C@@](C)([C@H]2CC[C@]3(C)[C@@H]2[C@H](O)C[C@@H]2[C@@]4(C)CC[C@H](O)C(C)(C)[C@@H]4CC[C@]23C)O1`, the viability at 10 µM in assay [4] worked out at 86.6%.
As to `CC(C)(O)[C@H]1CC[C@@](C)([C@H]2CC[C@]3(C)[C@@H]2[C@H](O)C[C@@H]2[C@@]4(C)Cc5sc(NC(=O)CCCCCN)nc5C(C)(C)[C@@H]4CC[C@]23C)O1`, the viability at 5 µM was found to be 35.3% in assay [1] and 21.6% in assay [2]. Further, the figures for the viability at 10 µM in assay [3] and in assay [4] were 30.3% and 12.5%, respectively.
`CC(C)(O)[C@@H]1CC[C@@](C)([C@H]2CC[C@]3(C)[C@@H]2[C@H](O)C[C@@H]2[C@@]4(C)Cc5sc(NC(=O)CCCCCN)nc5C(C)(C)[C@@H]4CC[C@]23C)O1`: the results for the viability at 5 µM in assay [1] and in assay [2] were 93.5% and 72.2%, respectively. The viability at 10 µM turned out to be 72.2% in assay [3] and 67.2% in assay [4].
Consider `CC(C)(O)[C@@H]1CC[C@@](C)([C@H]2CC[C@]3(C)[C@@H]2[C@H](O)C[C@@H]2[C@@]4(C)Cc5sc(NC(=O)CCCCCCCCCCN)nc5C(C)(C)[C@@H]4CC[C@]23C)O1`, for which the viability at 5 µM in assay [1] came to 18.4%; in assay [2] it was 18.1%. For the same molecule, the results for the viability at 10 µM in assay [3] and in assay [4] were 17.5% and 16.4%, respectively.
In the same order, the values of `CC(C)(O)[C@H]1CC[C@@](C)([C@H]2CC[C@]3(C)[C@@H]2[C@H](O)C[C@@H]2[C@@]4(C)Cc5sc(N)nc5C(C)(C)[C@@H]4CC[C@]23C)O1` are 104%, 33.7%, 73.9% and 18.2%.
As for `CC(C)C[C@H](N)C(=O)Nc1nc2c(s1)C[C@]1(C)[C@H]3C[C@@H](O)[C@@H]4[C@@H]([C@]5(C)CC[C@@H](C(C)(C)O)O5)CC[C@@]4(C)[C@]3(C)CC[C@H]1C2(C)C`, the viability at 5 µM in assay [1] came out at 89.3%; in assay [2] it was 71.8%. Also, the results for the viability at 10 µM in assay [3] and in assay [4] were 98.1% and 50.9%, respectively.
On to `CC(C)(O)[C@@H]1CC[C@@](C)([C@H]2CC[C@]3(C)[C@@H]2[C@H](O)C[C@@H]2[C@@]4(C)CC[C@H](O)C(C)(C)[C@@H]4CC[C@]23C)O1`, for which the viability at 10 µM in assay [4] came to 86.5%.
Regarding `C[C@H](N)C(=O)Nc1nc2c(s1)C[C@]1(C)[C@H]3C[C@@H](O)[C@@H]4[C@@H]([C@]5(C)CC[C@@H](C(C)(C)O)O5)CC[C@@]4(C)[C@]3(C)CC[C@H]1C2(C)C`, the viability at 5 µM in assay [1] was 95.7%; in assay [2] it was 77.4%. Moreover, the viability at 10 µM in assay [3] was 97.4%; in assay [4], 46%.
For the molecule `CC(C)(O)[C@@H]1CC[C@@](C)([C@H]2CC[C@]3(C)[C@@H]2[C@H](O)C[C@@H]2[C@@]4(C)Cc5sc(NC(=O)[C@H](N)Cc6ccccc6)nc5C(C)(C)[C@@H]4CC[C@]23C)O1`, the results for the viability at 5 µM in assay [1] and in assay [2] were 103% and 101%, respectively. The values for the viability at 10 µM in assay [3] and in assay [4] were 96% and 50.2%, respectively.
`CC(C)(O)[C@@H]1CC[C@@](C)([C@H]2CC[C@]3(C)[C@@H]2[C@H](O)C[C@@H]2[C@@]4(C)Cc5sc(NC(=O)CCCCCCCN)nc5C(C)(C)[C@@H]4CC[C@]23C)O1`: the figures for the viability at 5 µM in assay [1] and in assay [2] were 44.7% and 29%, respectively. The viability at 10 µM in assay [3] was determined as 16.5%; in assay [4], 17.3%.
For `CC(C)(O)[C@H]1CC[C@@](C)([C@H]2CC[C@]3(C)[C@@H]2[C@H](O)C[C@@H]2[C@@]4(C)Cc5sc(NC(=O)[C@H]6CCCN6)nc5C(C)(C)[C@@H]4CC[C@]23C)O1`, the viability at 5 µM in assay [1] was found to be 84.1%; in assay [2], 39.5%. The viability at 10 µM in assay [3] worked out at 59.5%; in assay [4], 22.9%.
Take `CC(C)(O)[C@H]1CC[C@@](C)([C@H]2CC[C@]3(C)[C@@H]2[C@H](O)C[C@@H]2[C@@]4(C)Cc5sc(NC(=O)CCCCCCCCCCN)nc5C(C)(C)[C@@H]4CC[C@]23C)O1`: the viability at 5 µM in assay [1] came out at 43.6%; in assay [2], 17.5%. For the same molecule, the viability at 10 µM in assay [3] was found to be 12.4%; in assay [4], 11.4%.
With `CC(C)C[C@H](N)C(=O)Nc1nc2c(s1)C[C@]1(C)[C@H]3C[C@@H](O)[C@H]4[C@@H]([C@]5(C)CC[C@H](C(C)(C)O)O5)CC[C@@]4(C)[C@]3(C)CC[C@H]1C2(C)C`, the viability at 5 µM in assay [1] worked out at 92.8%; in assay [2], 90.4%. Further, the figures for the viability at 10 µM in assay [3] and in assay [4] were 89% and 32.6%, respectively.
Consider `C[C@H](N)C(=O)Nc1nc2c(s1)C[C@]1(C)[C@H]3C[C@@H](O)[C@@H]4[C@@H]([C@]5(C)CC[C@H](C(C)(C)O)O5)CC[C@@]4(C)[C@]3(C)CC[C@H]1C2(C)C`, for which the viability at 5 µM was 91.4% in assay [1] and 67.3% in assay [2]. Moreover, the values for the viability at 10 µM in assay [3] and in assay [4] were 103% and 41%, respectively.
Regarding `CC(C)(O)[C@@H]1CC[C@@](C)([C@H]2CC[C@]3(C)[C@@H]2[C@H](O)C[C@@H]2[C@@]4(C)Cc5sc(NC(=O)[C@H](N)Cc6c[nH]c7ccccc67)nc5C(C)(C)[C@@H]4CC[C@]23C)O1`, the viability at 5 µM in assay [1] came out at 92.8%; in assay [2], 94.4%. Moreover, the viability at 10 µM came out at 95.7% in assay [3] and 76.3% in assay [4].
On the same counts, the results for `CC(C)(O)[C@@H]1CC[C@@](C)([C@H]2CC[C@]3(C)[C@@H]2[C@H](O)C[C@@H]2[C@@]4(C)Cc5sc(NC(=O)CN)nc5C(C)(C)[C@@H]4CC[C@]23C)O1` are 94.6%, 59.4%, 65.4% and 30.2%.
Regarding `CC(C)(O)[C@H]1CC[C@@](C)([C@H]2CC[C@]3(C)[C@@H]2[C@H](O)C[C@@H]2[C@@]4(C)Cc5sc(NC(=O)CCCCCCCN)nc5C(C)(C)[C@@H]4CC[C@]23C)O1`, the viability at 5 µM is 38.3% in assay [1] and 23.6% in assay [2]. In addition, the viability at 10 µM in assay [3] is 23.5%; in assay [4], 15%.
On the same counts, the results for `CC(C)(O)[C@H]1CC[C@@](C)([C@H]2CC[C@]3(C)[C@@H]2[C@H](O)C[C@@H]2[C@@]4(C)Cc5sc(NC(=O)CCCN)nc5C(C)(C)[C@@H]4CC[C@]23C)O1` are 34.7%, 19.8%, 14.9% and 12.6%.
On to `CC(C)[C@H](N)C(=O)Nc1nc2c(s1)C[C@]1(C)[C@H]3C[C@@H](O)[C@H]4[C@@H]([C@]5(C)CC[C@@H](C(C)(C)O)O5)CC[C@@]4(C)[C@]3(C)CC[C@@]1(O)C2(C)C`, for which the viability at 5 µM in assay [1] came out at 92.5%; in assay [2], 98.6%. The viability at 10 µM is 100% in assay [3] and 90.7% in assay [4].
In the same order, the values of `CC(C)(O)[C@H]1CC[C@@](C)([C@H]2CC[C@]3(C)[C@H]2[C@H](O)C[C@@H]2[C@@]4(C)Cc5sc(NC(=O)[C@H](N)Cc6c[nH]c7ccccc67)nc5C(C)(C)[C@@H]4CC[C@]23C)O1` are 91.9%, 69.5%, 93.9% and 55.6%.
For `CC(C)(O)[C@@H]1CC[C@@](C)([C@H]2CC[C@]3(C)[C@@H]2[C@H](O)C[C@@H]2[C@@]4(C)Cc5sc(N)nc5C(C)(C)[C@@H]4CC[C@]23C)O1`, the viability at 5 µM in assay [1] came out at 112%; in assay [2], 68.7%. Also, the viability at 10 µM was determined as 80.6% in assay [3] and 48.6% in assay [4].
For the molecule `CC(C)(O)[C@H]1CC[C@@](C)([C@H]2CC[C@]3(C)[C@@H]2[C@H](O)C[C@@H]2[C@@]4(C)Cc5sc(NC(=O)[C@H](N)Cc6ccccc6)nc5C(C)(C)[C@@H]4CC[C@]23C)O1`, the viability at 5 µM in assay [1] stood at 100%; in assay [2], 54.1%. Besides, the viability at 10 µM amounted to 101% in assay [3] and 39.1% in assay [4].
On to `CC(C)(O)[C@@H]1CC[C@@](C)([C@H]2CC[C@]3(C)[C@@H]2[C@H](O)C[C@@H]2[C@@]4(C)Cc5sc(NC(=O)CCCN)nc5C(C)(C)[C@@H]4CC[C@]23C)O1`, for which the viability at 5 µM in assay [1] stood at 106%; in assay [2], 90%. Moreover, the viability at 10 µM in assay [3] came to 67.2%; in assay [4], 57%.
On the same counts, the results for `CC(C)(O)[C@@H]1CC[C@@](C)([C@H]2CC[C@]3(C)[C@@H]2[C@H](O)C[C@@H]2[C@@]4(C)Cc5sc(NC(=O)[C@H]6CCCN6)nc5C(C)(C)[C@@H]4CC[C@]23C)O1` are 94.6%, 69.8%, 93.3% and 48.1%.
